Data taken from the NIST ThermoML archive (doi:10.1016/j.jct.2012.09.016).

Assays:
[1] = Liquid, Vibrating tube method
[2] = molar heat capacity at constant pressure; conditions: Liquid, Small sample (50 mg) DSC

CCCCCCN [1-hexanamine]
Conditions	mass density, [1] [kg/m3]	molar heat capacity at constant pressure, [2] [J/K/mol]
313.15 K, 100 kPa	–	253.5
313.15 K, 20000 kPa	–	251
313.15 K, 40000 kPa	–	250.1
313.15 K, 60000 kPa	–	248.9
323.15 K, 100 kPa	–	253.7
323.15 K, 20000 kPa	–	251.5
323.15 K, 40000 kPa	–	250.5
323.15 K, 60000 kPa	–	249.3
333.15 K, 100 kPa	–	254.4
333.15 K, 20000 kPa	–	252.4
333.15 K, 40000 kPa	–	251.2
333.15 K, 60000 kPa	–	250.1
343.15 K, 100 kPa	–	255.7
343.15 K, 20000 kPa	–	253.6
343.15 K, 40000 kPa	–	252.3
343.15 K, 60000 kPa	–	251.3
353.15 K, 100 kPa	–	257.5
353.15 K, 20000 kPa	–	255.2
353.15 K, 40000 kPa	–	253.8
353.15 K, 60000 kPa	–	252.8
363.15 K, 100 kPa	–	259.8
363.15 K, 20000 kPa	–	257.2
363.15 K, 40000 kPa	–	255.6
363.15 K, 60000 kPa	–	254.7
373.15 K, 100 kPa	–	262.6
373.15 K, 20000 kPa	–	259.6
373.15 K, 40000 kPa	–	257.8
373.15 K, 60000 kPa	–	256.9
383.15 K, 20000 kPa	–	262.3
383.15 K, 40000 kPa	–	260.3
383.15 K, 60000 kPa	–	259.5
383.15 K, 110000 kPa	768.3	–
383.15 K, 120000 kPa	773.2	–
383.15 K, 130000 kPa	777.7	–
383.15 K, 140000 kPa	782	–
393.15 K, 100 kPa	676.2	–
393.15 K, 10000 kPa	689.2	–
393.15 K, 20000 kPa	700.3	265.3
393.15 K, 30000 kPa	709.8	–
393.15 K, 40000 kPa	718.4	263.1
393.15 K, 50000 kPa	726.6	–
393.15 K, 60000 kPa	733.7	262.4
393.15 K, 70000 kPa	740.3	–
393.15 K, 80000 kPa	746.5	–
393.15 K, 90000 kPa	752.2	–
393.15 K, 100000 kPa	757.7	–
393.15 K, 110000 kPa	762.9	–
393.15 K, 120000 kPa	767.8	–
393.15 K, 130000 kPa	772.5	–
393.15 K, 140000 kPa	776.9	–
403.15 K, 100 kPa	666.9	–
403.15 K, 10000 kPa	680.9	–
403.15 K, 20000 kPa	692.5	268.8
403.15 K, 30000 kPa	702.8	–
403.15 K, 40000 kPa	711.7	266.4
403.15 K, 50000 kPa	719.9	–
403.15 K, 60000 kPa	727.2	265.7
403.15 K, 70000 kPa	734.1	–
403.15 K, 80000 kPa	740.4	–
403.15 K, 90000 kPa	746.5	–
403.15 K, 100000 kPa	752.1	–
403.15 K, 110000 kPa	757.4	–
403.15 K, 120000 kPa	762.5	–
403.15 K, 130000 kPa	767.2	–
403.15 K, 140000 kPa	771.8	–
